Source: PubChem BioAssay (NCI)
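96-well plates; 48 h exposure; 5 concentrations. Endpoints by linear interpolation between flanking doses. Not reached: highest tested concentration assigned. GI50 is the concentration that inhibits growth by half. TGI: concentration producing complete growth inhibition.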

What was measured:
Experiment in all cases: NCI anticancer screen, dose series, 48 h; in the data active = GI50 below about 0.43 µM; inactive = the rest
[1] = tested on: MOLT-4 leukemia
[2] = tested on: MALME-3M melanoma
[3] = tested on: SNB-19 CNS
[4] = tested on: NCI-H226 lung
[5] = tested on: SNB-75 CNS
[6] = tested on: ACHN renal
[7] = tested on: OVCAR-3 ovarian
[8] = tested on: OVCAR-5 ovarian
[9] = tested on: CCRF-CEM leukemia
[10] = tested on: IGROV1 ovarian
[11] = tested on: SR leukemia
[12] = tested on: HL-60(TB) leukemia
[13] = tested on: UACC-257 melanoma
[14] = tested on: NCI-H460 lung
[15] = tested on: MDA-MB-231 breast
[16] = tested on: SF-295 CNS
[17] = tested on: SK-OV-3 ovarian
[18] = tested on: SK-MEL-5 melanoma
[19] = tested on: SN12C renal
[20] = tested on: SK-MEL-28 melanoma
[21] = tested on: CAKI-1 renal
[22] = tested on: MCF7 breast
[23] = tested on: NCI/ADR-RES ovarian
[24] = tested on: HS 578T breast
[25] = tested on: A549 NSCLC
[26] = tested on: PC-3 prostate
[27] = tested on: A498 renal
[28] = tested on: HCT-116 colon
[29] = tested on: SF-268 CNS
[30] = tested on: RXF 393 renal
[31] = tested on: UACC-62 melanoma
[32] = tested on: HOP-92 NSCLC
[33] = tested on: K-562 leukemia
[34] = tested on: RPMI-8226 leukemia
[35] = tested on: MDA-MB-435
[36] = tested on: SK-MEL-2 melanoma
[37] = tested on: KM12 colon
[38] = tested on: HCC-2998 colon
[39] = tested on: COLO 205 colon
[40] = tested on: M14 melanoma
[41] = tested on: TK-10 renal
[42] = tested on: T-47D breast
[43] = tested on: HOP-62 NSCLC
[44] = tested on: NCI-H23 lung
[45] = tested on: EKVX NSCLC
[46] = tested on: HT29 colon
[47] = tested on: UO-31 renal
[48] = tested on: SF-539 CNS
[49] = tested on: LOX IMVI melanoma
[50] = tested on: SW-620 colon
[51] = tested on: NCI-H522 lung
[52] = tested on: OVCAR-8 ovarian
[53] = tested on: U251 CNS
[54] = tested on: 786-0 renal
[55] = tested on: OVCAR-4 ovarian
[56] = tested on: DU-145 prostate
[57] = tested on: HCT-15 colon

N#Cc1c(N)nc(NCc2ccccc2)c(C#N)c1-c1ccc(Cl)cc1Cl
21.8 µM: TGI [11]
> 100 µM: TGI [1] | TGI [2] | TGI [3] | TGI [4] | TGI [6] | TGI [7] | TGI [8] | TGI [10] | TGI [12] | TGI [13] | TGI [14] | TGI [15] | TGI [16] | TGI [17] | TGI [18] | TGI [19] | TGI [20] | TGI [21] | TGI [22] | TGI [23] | TGI [24] | TGI [25] | TGI [26] | TGI [27] | TGI [28] | TGI [30] | TGI [31] | TGI [32] | TGI [33] | TGI [34] | TGI [35] | TGI [36] | TGI [37] | TGI [38] | TGI [39] | TGI [40] | TGI [41] | TGI [42] | TGI [44] | TGI [45] | TGI [46] | TGI [47] | TGI [48] | TGI [49] | TGI [50] | TGI [51] | TGI [52] | TGI [53] | TGI [54] | TGI [56] | TGI [57]
1180 nM: TGI [29]
28.6 µM: TGI [9]
inactive: GI50 [1] 34.6 µM | GI50 [2] > 63.1 µM | GI50 [3] > 100 µM | GI50 [4] > 100 µM | GI50 [5] 22.9 µM | GI50 [6] > 100 µM | GI50 [7] > 64.2 µM | GI50 [8] 96.9 µM | GI50 [9] 10.2 µM | GI50 [10] 40.5 µM | GI50 [11] 2070 nM | GI50 [13] > 100 µM | GI50 [14] > 69.4 µM | GI50 [15] > 100 µM | GI50 [16] > 63.9 µM | GI50 [17] > 100 µM | GI50 [18] > 100 µM | GI50 [19] > 100 µM | GI50 [20] > 100 µM | GI50 [21] > 100 µM | GI50 [22] > 100 µM | GI50 [23] > 68.1 µM | GI50 [24] 85.7 µM | GI50 [25] > 100 µM | GI50 [26] 55.7 µM | GI50 [27] > 100 µM | GI50 [28] > 100 µM | GI50 [30] 52.4 µM | GI50 [31] > 100 µM | GI50 [32] 1120 nM | GI50 [33] > 100 µM | GI50 [34] 33.5 µM | GI50 [35] > 46.8 µM | GI50 [36] > 77.2 µM | GI50 [37] > 84.5 µM | GI50 [38] > 100 µM | GI50 [39] > 100 µM | GI50 [40] > 53.4 µM | GI50 [41] > 84.3 µM | GI50 [42] 72.3 µM | GI50 [43] > 51.9 µM | GI50 [44] > 76.1 µM | GI50 [45] > 100 µM | GI50 [46] > 100 µM | GI50 [47] > 100 µM | GI50 [48] > 100 µM | GI50 [49] > 100 µM | GI50 [50] 74.4 µM | GI50 [51] > 68.7 µM | GI50 [52] > 67 µM | GI50 [53] > 61.9 µM | GI50 [54] > 100 µM | GI50 [55] 24.7 µM | GI50 [56] > 100 µM | GI50 [57] > 100 µM
> 85.9 µM: TGI [43]
99 µM: TGI [5]
99.3 µM: TGI [55]
